In one test the target is T1, TYK2 (Homo sapiens, UniProt P29597).
T1 construct: endogenous in cells; host or cells: Molt4 (ATCC CRL-1582) and Ramos (ATCC CRL-1596), mixed lysate 1:2
Briefly: Kinobeads assay, TYK2 (competition binding in mixed Molt4/Ramos cell lysate, dot blot detection). In outline: (§1)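 Competition binding: compound dilutions (1:3 series, 9 steps) plus immobilized aminopyrido-pyrimidine beads incubated 3 h in the cold with mixed Molt4/Ramos lysate (1:2) at 10 mg/mL protein. Bead-bound JAK2/TYK2 eluted and quantified by antibody dot blot with infrared detection; IC50 from dose-response curves.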

In a further test the target is T2, JAK2 (Homo sapiens, UniProt O60674).
T2 construct: endogenous in cells; host or cells: Molt4 (ATCC CRL-1582) and Ramos (ATCC CRL-1596), mixed lysate 1:2
T2 sequence (O60674 whole entry): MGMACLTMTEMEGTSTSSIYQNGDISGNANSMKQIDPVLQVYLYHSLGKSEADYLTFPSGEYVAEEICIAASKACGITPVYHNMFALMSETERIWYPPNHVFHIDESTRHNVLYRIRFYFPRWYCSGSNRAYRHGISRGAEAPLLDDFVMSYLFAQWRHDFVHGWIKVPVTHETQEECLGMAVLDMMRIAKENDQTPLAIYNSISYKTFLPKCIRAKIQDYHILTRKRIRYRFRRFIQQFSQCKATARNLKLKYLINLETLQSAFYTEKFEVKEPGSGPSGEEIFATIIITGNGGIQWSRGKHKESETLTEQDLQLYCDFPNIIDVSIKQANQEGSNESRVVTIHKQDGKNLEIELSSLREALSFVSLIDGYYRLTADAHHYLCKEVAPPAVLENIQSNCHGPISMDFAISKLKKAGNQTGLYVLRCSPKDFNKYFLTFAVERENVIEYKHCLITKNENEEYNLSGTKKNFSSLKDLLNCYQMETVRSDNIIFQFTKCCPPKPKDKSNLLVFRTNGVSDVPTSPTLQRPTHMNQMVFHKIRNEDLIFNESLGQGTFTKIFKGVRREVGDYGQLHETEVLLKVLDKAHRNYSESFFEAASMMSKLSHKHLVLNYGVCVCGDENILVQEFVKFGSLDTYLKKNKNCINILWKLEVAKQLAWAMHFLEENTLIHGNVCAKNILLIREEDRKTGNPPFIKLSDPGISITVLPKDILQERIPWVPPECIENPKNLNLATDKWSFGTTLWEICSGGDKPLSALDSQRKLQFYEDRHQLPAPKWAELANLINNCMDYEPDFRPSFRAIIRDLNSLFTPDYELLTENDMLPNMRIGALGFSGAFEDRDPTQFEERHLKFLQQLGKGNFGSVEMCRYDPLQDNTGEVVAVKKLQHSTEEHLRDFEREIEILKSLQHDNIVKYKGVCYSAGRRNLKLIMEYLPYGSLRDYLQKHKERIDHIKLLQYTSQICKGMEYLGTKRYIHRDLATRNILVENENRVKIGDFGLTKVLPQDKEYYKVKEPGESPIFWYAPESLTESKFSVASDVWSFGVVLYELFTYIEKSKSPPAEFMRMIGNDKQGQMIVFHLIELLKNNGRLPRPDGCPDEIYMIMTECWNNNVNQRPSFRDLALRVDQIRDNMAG
In words: Kinobeads assay, JAK2 (competition binding in mixed Molt4/Ramos cell lysate, dot blot detection). Conditions: read-out: JAK2 Band (Kinobeads assay potency, IC50). In outline: as §1

Where [1] appears, read: Kinobeads assay, Molt4/Ramos lysate, read-out: TYK2 Band (Kinobeads assay potency, IC50).

Where two headings read alike, the source gives them in different places. A value given as a limit tells only on which side of the number the result lay.

T1 sequence (P29597 whole entry): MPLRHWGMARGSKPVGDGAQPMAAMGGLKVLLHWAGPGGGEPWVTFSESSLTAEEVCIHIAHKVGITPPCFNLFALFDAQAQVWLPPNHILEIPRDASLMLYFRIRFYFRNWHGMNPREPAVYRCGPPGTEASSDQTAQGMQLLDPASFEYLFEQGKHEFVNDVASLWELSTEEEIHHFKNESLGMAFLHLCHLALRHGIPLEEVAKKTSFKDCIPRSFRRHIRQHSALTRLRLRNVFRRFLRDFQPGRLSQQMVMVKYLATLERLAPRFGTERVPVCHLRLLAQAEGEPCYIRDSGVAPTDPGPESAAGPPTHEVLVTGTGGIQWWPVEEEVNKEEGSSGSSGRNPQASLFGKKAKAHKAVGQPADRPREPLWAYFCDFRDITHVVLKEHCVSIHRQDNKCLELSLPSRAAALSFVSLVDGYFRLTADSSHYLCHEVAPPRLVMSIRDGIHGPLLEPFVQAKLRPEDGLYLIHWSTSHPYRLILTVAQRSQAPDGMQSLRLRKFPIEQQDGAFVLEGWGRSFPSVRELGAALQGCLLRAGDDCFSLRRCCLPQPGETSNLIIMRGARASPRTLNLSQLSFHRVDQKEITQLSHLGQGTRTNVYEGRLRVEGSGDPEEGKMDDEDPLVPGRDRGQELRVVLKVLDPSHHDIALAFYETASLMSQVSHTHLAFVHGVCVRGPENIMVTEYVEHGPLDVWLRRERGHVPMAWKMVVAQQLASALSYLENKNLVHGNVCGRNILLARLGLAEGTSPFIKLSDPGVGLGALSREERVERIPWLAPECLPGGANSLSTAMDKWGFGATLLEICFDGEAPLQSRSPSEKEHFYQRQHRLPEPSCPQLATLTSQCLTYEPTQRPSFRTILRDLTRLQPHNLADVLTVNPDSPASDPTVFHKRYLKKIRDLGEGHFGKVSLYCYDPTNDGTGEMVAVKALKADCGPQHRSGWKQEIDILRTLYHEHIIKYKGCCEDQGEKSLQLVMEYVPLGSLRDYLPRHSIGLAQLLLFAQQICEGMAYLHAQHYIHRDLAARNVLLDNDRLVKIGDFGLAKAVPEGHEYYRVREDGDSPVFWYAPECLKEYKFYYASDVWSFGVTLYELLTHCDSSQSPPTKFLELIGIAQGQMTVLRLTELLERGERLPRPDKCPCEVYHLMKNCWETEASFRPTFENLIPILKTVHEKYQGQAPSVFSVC

Take `O=C(Cn1cc(Nc2ncc(Cl)c(NCc3ccccc3)n2)cn1)N1CC2COCC2C1` (stereo not drawn) [Example I-188]: the IC50 at TYK2 (setting [1]) is 0.01 to 0.1 µM; on JAK2, 1 to 10 µM.
Take `CS(=O)(=O)c1ccccc1CNc1nc(Nc2cnn(CC(F)(F)F)c2)ncc1Cl` [Example I-475]: the IC50 is 1 to 10 µM at TYK2 (setting [1]) and > 10 µM on JAK2.
For `CS(=O)(=O)NCc1cccc(CNc2nc(Nc3cnn(CCO)c3)ncc2Cl)c1` [Example I-417] the same measures were 0.1 to 1 µM and 0.1 to 1 µM.
For `COc1ccc(F)c(CNc2ccnc(Nc3cnn(CC(=O)N[C@@H]4C[C@@H]4F)c3)n2)c1F` [Example I-128], in that order: 0.01 to 0.1 µM and 1 to 10 µM.
Turning to `CC(C)NC(=O)Cn1cc(Nc2ncc(F)c(NCc3c(F)cc(F)cc3F)n2)cn1` [Example I-38], the results for the IC50 at TYK2 (setting [1]), on TYK2 (read-out: TYK2 IC50) and at JAK2 were ≤ 0.01 µM, < 0.1 µM and 1 to 10 µM, respectively.
In the case of `CNC(=O)Cn1cc(Nc2ncc(Cl)c(NCc3ccccc3F)n2)cn1` [Example I-211], the IC50 on TYK2 (setting [1]) and on JAK2 was 0.1 to 1 µM in each case.
For `CC1(C)COCCN1C(=O)Cn1cc(Nc2ncc(F)c(NCc3c(F)cc(F)cc3F)n2)cn1` [Example I-309], the concentration for half-maximal inhibition (IC50) at TYK2 (setting [1]) lay within 0.01 to 0.1 µM; at JAK2 it was 1 to 10 µM.
For `CS(=O)(=O)NCc1cccc(CNc2nc(Nc3cnn(CC(N)=O)c3)ncc2Cl)c1` [Example I-397], in that order: 0.1 to 1 µM and 1 to 10 µM.
For `COc1cc(F)c(CNc2ccnc(Nc3cnn(CC(=O)NC(C)C)c3)n2)c(F)c1` [Example I-64] the same measures were 0.01 to 0.1 µM and > 10 µM.
For `Cn1cc(Nc2ncc(Cl)c(NCc3c(F)ccc(F)c3F)n2)cn1` [Example I-340], the results for the IC50 on TYK2 (setting [1]) and at JAK2 were 0.01 to 0.1 µM and 0.1 to 1 µM, respectively.
For `Cc1cnc(Nc2cnn(C)c2)nc1NCc1c(F)ccc(F)c1F` [Example I-420] the same measures were 0.01 to 0.1 µM and 0.1 to 1 µM.
For `COc1ccc(F)c(CNc2nc(Nc3cnn(CCOC(C)C)c3)ncc2F)c1F` [Example I-394] the same measures were 0.1 to 1 µM and > 10 µM.
For `CS(=O)(=O)c1cccc(CNc2nc(Nc3cnn(CC(=O)NC4CC4)c3)ncc2Cl)c1` [Example I-440], in that order: 0.01 to 0.1 µM and 1 to 10 µM.
`N#C[C@@H]1CCCN1C(=O)Cn1cc(Nc2ncc(Cl)c(NCc3ccccc3)n2)cn1` [Example I-272]: the figures for the IC50 on TYK2 (setting [1]) and at JAK2 were 0.1 to 1 µM and 1 to 10 µM, respectively.
For `NC(=O)Cn1cc(Nc2ncc(Cl)c(NCc3c(F)cc(F)cc3F)n2)cn1` [Example I-387] the same measures were 0.01 to 0.1 µM and 1 to 10 µM.
For `CN(Cc1cccc(CNc2nc(Nc3cnn(CCO)c3)ncc2Cl)c1)S(C)(=O)=O` [Example I-398] the same measures were 0.1 to 1 µM and 1 to 10 µM.
For `CC(C)N(C)C(=O)Cn1cc(Nc2ncc(F)c(NCc3cccc(OC(F)F)c3)n2)cn1` [Example I-56], in that order: 0.01 to 0.1 µM and > 10 µM.
Turning to `CS(=O)(=O)c1ccc(F)cc1CNc1nc(Nc2cn[nH]c2)ncc1F` [Example I-486], the IC50 at TYK2 (setting [1]) and at JAK2 was 0.1 to 1 µM in each case.
In the case of `Cc1cnc(Nc2cnn(CC(=O)NC3CCC3)c2)nc1NCc1c(F)cc(F)cc1F` [Example I-33], the IC50 lay within 0.01 to 0.1 µM on TYK2 (setting [1]) and 1 to 10 µM on JAK2.
For `CC(C)(C)OC(=O)N1CC2(CN(C(=O)Cn3cc(Nc4ncc(Cl)c(NCc5ccccc5)n4)cn3)C2)C1` [Example I-220] the same measures were 0.1 to 1 µM and 1 to 10 µM.
As for `Fc1cccc(F)c1CNc1nc(Nc2cnn(Cc3ncco3)c2)ncc1Cl` [Example I-481], the IC50 at TYK2 (setting [1]) is 0.1 to 1 µM; on JAK2, 1 to 10 µM.
For `Cn1cc(Nc2ncc(F)c(NCc3c(F)cc(F)cc3F)n2)cn1` [Example I-374], in that order: 0.01 to 0.1 µM and 1 to 10 µM.
For `Cc1cnc(Nc2cnn(CC(=O)N(C)C)c2)nc1NCc1c(F)cccc1F` [Example I-299], the values for the IC50 at TYK2 (setting [1]) and on JAK2 were ≤ 0.01 µM and 0.1 to 1 µM, respectively.
With `CS(=O)(=O)NCc1cccc(CNc2nc(Nc3cnn(CCO)c3)ncc2F)c1` [Example I-415], the IC50 was in the range of 0.1 to 1 µM on TYK2 (setting [1]) and 1 to 10 µM on JAK2.
For the compound `Cc1cnc(Nc2cnn(CC(=O)NC3CC3)c2)nc1NCc1cccc(F)c1F` [Example I-341], the values for the half-inhibitory concentration (IC50) at TYK2 (setting [1]) and at JAK2 were 0.01 to 0.1 µM and 1 to 10 µM, respectively.
For `O=C(Cn1cc(Nc2nccc(NCc3c(F)cc(F)cc3F)n2)cn1)NCC(F)F` [Example I-92], in that order: 0.01 to 0.1 µM and 1 to 10 µM.
For `CNC(=O)Cn1cc(Nc2ncc(Cl)c(NCc3cccc(F)c3)n2)cn1` [Example I-212] the same measures were 0.1 to 1 µM and 0.1 to 1 µM.
For `CS(=O)(=O)c1ccc(F)c(CNc2nc(Nc3cnn(CC(N)=O)c3)ncc2F)c1` [Example I-116], in that order: 0.01 to 0.1 µM and 1 to 10 µM.
Regarding `Fc1cc(F)c(F)c(CNc2nc(Nc3cnn(CC(F)F)c3)ncc2Cl)c1` [Example I-468], the half-maximal inhibitory concentration (IC50) on TYK2 (setting [1]) and at JAK2 was 0.1 to 1 µM throughout.
Take `N#CCNC(=O)c1cccc(CNc2nc(Nc3cnn(CCO)c3)ncc2Cl)c1` [Example I-242]: the results for the IC50 at TYK2 (setting [1]) and at JAK2 were 0.1 to 1 µM and 1 to 10 µM, respectively.
For `CC(O)Cn1cc(Nc2ncc(Cl)c(NCc3c(F)cccc3F)n2)cn1` (stereo not drawn) [Example I-209], the IC50 on TYK2 (setting [1]) is 0.01 to 0.1 µM; on JAK2, 1 to 10 µM.
For `CS(=O)(=O)Cc1cccc(CNc2nc(Nc3cnn(CC(N)=O)c3)ncc2Cl)c1` [Example I-443], in that order: 0.1 to 1 µM and 1 to 10 µM.
Consider `C[C@@H](CO)NC(=O)Cn1cc(Nc2ncc(F)c(NCc3c(F)cc(F)cc3F)n2)cn1` [Example I-42], for which the IC50 on TYK2 (setting [1]) is ≤ 0.01 µM; at JAK2 it was 1 to 10 µM.
For `OCCn1cc(Nc2ncc(Cl)c(NCc3cccc(OC(F)F)c3)n2)cn1` [Example I-322] the same measures were 0.01 to 0.1 µM and 1 to 10 µM.
As to `CC(C)NC(=O)Cn1cc(Nc2ncc(F)c(NCc3c(Cl)ccc(Cl)c3F)n2)cn1` [Example I-82], the figures for the IC50 on TYK2 (setting [1]) and on JAK2 were 0.01 to 0.1 µM and 0.1 to 1 µM, respectively.
For `Cc1cnc(Nc2cnn(CCO)c2)nc1NCc1c(F)cc(F)cc1F` [Example I-303] the same measures were 0.01 to 0.1 µM and 0.1 to 1 µM.
For `C[C@H](CO)NC(=O)Cn1cc(Nc2nccc(NCc3c(F)ccc(C#N)c3F)n2)cn1` [Example I-154], in that order: ≤ 0.01 µM and 1 to 10 µM.
For `Cc1cnc(Nc2cnn(CC(=O)NC(C)C)c2)nc1NCc1c(F)cc(F)cc1F` [Example I-32] the same measures were ≤ 0.01 µM and 1 to 10 µM.
In the case of `CN(C)C(=O)Cn1cc(Nc2ncc(Cl)c(NCc3cc(Br)cc(F)c3F)n2)cn1` [Example I-263], the IC50 at TYK2 (setting [1]) and on JAK2 was 0.1 to 1 µM each time.
For the compound `CN(C)C(=O)Cn1cc(Nc2ncc(F)c(NCc3c(Cl)cccc3Cl)n2)cn1` [Example I-251], the IC50 on TYK2 (setting [1]) was in the range of 0.01 to 0.1 µM; on JAK2 it was 1 to 10 µM.
For `OCCn1cc(Nc2ncc(Cl)c(NCc3c(F)ccc(F)c3F)n2)cn1` [Example I-373], in that order: ≤ 0.01 µM and 0.01 to 0.1 µM.
For `Cc1cnc(Nc2cnn(CC(=O)O)c2)nc1NCc1c(F)ccc(F)c1F` [Example I-424] the same measures were 0.01 to 0.1 µM and 0.1 to 1 µM.
For `O=C(O)Cn1cc(Nc2ncc(Cl)c(NCc3ccccc3)n2)cn1` [Example I-222] the same measures were 0.1 to 1 µM and 1 to 10 µM.
For the compound `COc1ccc(F)c(CNc2nc(Nc3cnn(CC(=O)N4CCOCC4)c3)ncc2Cl)c1F` [Example I-377], the IC50 is 0.01 to 0.1 µM at TYK2 (setting [1]) and 0.1 to 1 µM on JAK2.
For `COc1ccc(F)c(CNc2nc(Nc3cnn(CC(=O)N(C)C)c3)ncc2C)c1F` [Example I-20] the same measures were ≤ 0.01 µM and 0.1 to 1 µM.
For `OCCn1cc(Nc2ncc(Cl)c(NCc3ccccc3CO)n2)cn1` [Example I-357], in that order: 0.1 to 1 µM and 1 to 10 µM.
For `CC(C#N)NC(=O)Cn1cc(Nc2nccc(NCc3c(F)cc(F)cc3F)n2)cn1` (stereo not drawn) [Example I-5, N-(1-cyanoethyl)-2-(4-((4-((2,4,6-trifluorobenzyl)amino)pyrimidin-2-yl)amino)-1H-pyrazol-1-yl)acetamide] the same measures were 0.01 to 0.1 µM and > 10 µM.
Turning to `CN(C)CCNC(=O)Cn1cc(Nc2ncc(Cl)c(NCc3ccccc3)n2)cn1` [Example I-221], the IC50 at TYK2 (setting [1]) and on JAK2 was 0.1 to 1 µM each time.
Take `O=C(Cn1cc(Nc2ncc(Cl)c(NCc3ccccc3)n2)cn1)N1CC2(COC2)C1` [Example I-236]: the results for the IC50 on TYK2 (setting [1]) and on JAK2 were 0.1 to 1 µM and 1 to 10 µM, respectively.
With `COc1ccc(Cl)c(CNc2nc(Nc3cnn(CC(=O)N4CCOCC4)c3)ncc2F)c1F` [Example I-81], the IC50 was ≤ 0.01 µM on TYK2 (setting [1]) and 0.1 to 1 µM on JAK2.
For `Cn1ncnc1Cn1cc(Nc2ncc(Cl)c(NCc3ccccc3)n2)cn1` [Example I-250] the same measures were 1 to 10 µM and 1 to 10 µM.
For `[2H]C([2H])(O)C([2H])([2H])n1cc(Nc2ncc(Cl)c(NCc3ccccc3)n2)cn1` [Example I-231], in that order: 0.1 to 1 µM and 1 to 10 µM.
For `Cc1cnc(Nc2cnn(CCO)c2)nc1NCc1ccccc1S(C)(=O)=O` [Example I-433], in that order: 0.1 to 1 µM and 1 to 10 µM.
`COc1ccc(Cl)c(CNc2ccnc(Nc3cnn(CC(=O)NC(C)C)c3)n2)c1F` [Example I-79]: the IC50 was ≤ 0.01 µM on TYK2 (setting [1]) and 1 to 10 µM at JAK2.
With `O=C(Cn1cc(Nc2ncc(Cl)c(NCc3ccccc3)n2)cn1)N1CCNCC1` [Example I-187], the IC50 at TYK2 (setting [1]) was 0.01 to 0.1 µM; on JAK2, 0.1 to 1 µM.
